This passage reports activation results from PubChem BioAssay AID977605 (Broad Institute, 2014).

Each structure is given as a SMILES string. The source made the active and inactive calls.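 Rule for the calls: active = fitted curve reaches 40% activation below the top valid tested dose, in every test run; inconclusive = test runs disagree on the call; inactive = the rest, including effects opposite to the expected direction.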

The first assay can be described thus: endothelial E-selectin upregulation by compounds – imaging, HUVEC, cherry-picked samples, dose response (AID 977605).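 Note: signal is the share of imaged cells scored positive for E-selectin.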 To be noted: HUVEC E-selectin immunostaining, at 10 µM (top of the series), percent of TNF-alpha response over vehicle.
Turning to `C[C@@H]1CN([C@H](C)CO)C(=O)c2c(c3ccccc3n2C)-c2ccccc2CO[C@@H]1CN(C)Cc1ccccc1C(F)(F)F`, the activation was 0.002% (inactive).

Staying with this assay, now noted: HUVEC E-selectin immunostaining, at 16 µM (top of the series), percent of TNF-alpha response over vehicle.
In the case of `C[C@@H]1CN([C@H](C)CO)C(=O)c2cccc(NC(=O)c3ccncc3)c2O[C@@H]1CN(C)Cc1ccc(C(=O)Nc2ccccc2N)cc1`, the activation was 4.83% (inactive).

Staying with this assay, now noted: HUVEC E-selectin immunostaining, at 18 µM (top of the series), percent of TNF-alpha response over vehicle.
Regarding `C[C@@H]1CN([C@H](C)CO)C(=O)c2cccc(NC(=O)CCCCCC(=O)Nc3ccccc3N)c2O[C@H]1CN(C)Cc1ccc2c(c1)OCO2`, the activation is 0.253% (inactive).

Still in this assay, the particulars now being: HUVEC E-selectin immunostaining, at 19.5 µM (top of the series).
For the compound `C=COCCn1c(C)c(C(C)=O)c2cc(O)ccc21`, the activation is 0.265% (inactive).

The assay is the same for the next values; noted with them: HUVEC E-selectin immunostaining, at 19.5 µM (top of the series), percent of TNF-alpha response over vehicle.
Turning to `Brc1cnc2nc(SCc3nc4ccccc4[nH]3)[nH]c2c1`, the activation is 1.19% (inactive).
On to `CNC[C@@H]1Oc2ccc(NS(C)(=O)=O)cc2C(=O)N([C@@H](C)CO)C[C@@H]1C`, for which the activation is -0.177% (inactive).
For the compound `NC(=O)C1CCN(c2nc(-c3ccccc3-c3ccccc3)cs2)CC1`, the activation is 0.136% (inactive).
Still for that read-out and setting: then `C[C@@H]1CN([C@H](C)CO)C(=O)c2cccc(NC(=O)Nc3ccc(F)cc3)c2O[C@@H]1CN(C)S(=O)(=O)c1cn(C)cn1`, with -0.066% (inactive); and `N#Cc1cccnc1N1CCC(C(N)=O)CC1`, with 0.067% (inactive); and `C[C@H]1CN([C@@H](C)CO)C(=O)Cc2cc(NC(=O)c3ccncc3)ccc2O[C@H]1CN(C)Cc1ccc(C(=O)Nc2ccccc2N)cc1`, with 6.93% (inactive).
With `CC(C)NC(=O)Nc1ccc2c(c1)CC(=O)N([C@H](C)CO)C[C@@H](C)[C@H](CN(C)Cc1ccc(Oc3ccccc3)cc1)O2`, the activation was -0.138% (inactive).
Consider `COc1ccc(NC(=O)c2cc(S(=O)(=O)N3CCCCC3)c[nH]2)cc1`, for which the activation is 0.335% (inactive).
Still for that read-out and setting: then `COc1ccc([C@H]2CC(=O)C[C@@H](CCn3nnc4ccccc43)O2)cc1`, with 0.021% (inactive); and `Cc1cccc(NS(=O)(=O)c2csc(C(N)=O)c2)c1C`, with 0.111% (inactive); and `COCC(=O)N(C)C[C@H]1Oc2cc(-c3ccc(F)cc3)ccc2S(=O)(=O)N([C@@H](C)CO)C[C@H]1C`, with -0.091% (inactive).
Consider `CCN(CC)CCN(C(=O)Cn1nnc(-c2ccc(C)o2)n1)C(C(=O)NC(C)(C)C)c1cccs1` (stereo not drawn), for which the activation is -0.044% (inactive).
As to `C[C@@H]1CN([C@H](C)CO)C(=O)c2cccc(NS(=O)(=O)c3cccs3)c2O[C@H]1CN(C)Cc1ccc(Cl)c(Cl)c1`, the activation is -0.024% (inactive).
`CN(C)CCN1CCN(C2CN(Cc3cn(Cc4ccc(C(F)(F)F)cc4)nn3)S(=O)(=O)C2)CC1` (stereo not drawn): the activation was 1.57% (inactive).
Same read-out and setting: to `COc1ccccc1N1CCN(C(=O)c2ccco2)CC1` belongs 1.75% (inactive); to `C[C@@H]1CN([C@@H](C)CO)C(=O)c2cccc(NS(=O)(=O)c3ccc(F)cc3)c2O[C@H]1CN(C)Cc1ccc(C(=O)O)cc1`, -0.15% (inactive).
Take `C[C@@H]1CN([C@H](C)CO)C(=O)c2cccc(NS(C)(=O)=O)c2O[C@@H]1CN(C)C(=O)Nc1cccc2ccccc12`: the activation was -0.133% (inactive).
On the same count and under the same terms, to `Cc1noc(C)c1S(=O)(=O)Nc1ccc2c(c1)CC(=O)N([C@H](C)CO)C[C@H](C)[C@@H](CN(C)C(=O)Nc1cccc3ccccc13)O2` belongs -0.095% (inactive).
The same measure, in the same setting: then `C[C@H]1CN([C@@H](C)CO)C(=O)Cc2cc(NC(=O)Nc3cccc4ccccc34)ccc2O[C@@H]1CN(C)C(=O)Nc1ccc(C(F)(F)F)cc1`, with 14.8% (inactive); and `COc1ccc(S(=O)(=O)Nc2ccc3c(c2)CC(=O)N([C@H](C)CO)C[C@@H](C)[C@@H](CN(C)C(=O)NC2CCCCC2)O3)cc1`, with 0.114% (inactive); and `COc1ccc(-c2nc3cc(C)c(Br)c(C)n3c2CC(C)(C)C)cc1OC`, with 0.052% (inactive).
Same read-out and setting: to `CC(C)NC(=O)N(C)C[C@@H]1Oc2ccc(NC(=O)CCC(F)(F)F)cc2CC(=O)N([C@@H](C)CO)C[C@H]1C` belongs 0.007% (inactive); to `Cc1noc(C)c1NC(=O)N(C)C[C@H]1Oc2ccc(NS(=O)(=O)c3c(C)noc3C)cc2C(=O)N([C@H](C)CO)C[C@@H]1C`, -0.221% (inactive); to `COc1ccc(C(=O)N2CC(c3ccccc3)CC2=O)cc1` (stereo not drawn), -0.124% (inactive).
Consider `Cc1noc(C)c1S(=O)(=O)Nc1ccc2c(c1)C(=O)N([C@@H](C)CO)C[C@@H](C)[C@@H](CN(C)Cc1ccc3c(c1)OCO3)O2`, for which the activation is -0.115% (inactive).
The same measure, in the same setting: then `COc1ccc(S(=O)(=O)Nc2ccc3c(c2)CC(=O)N([C@H](C)CO)C[C@H](C)[C@@H](CN(C)C(=O)NC2CCCCC2)O3)cc1`, with -0.163% (inactive).
As for `CC(C)(C)CC(=O)Nc1ccc(-c2cn3cccnc3n2)cc1`, the activation was 0.057% (inactive).
For the compound `COc1ccc(S(=O)(=O)N(C)C[C@@H]2Oc3ccc(NC(=O)Nc4c(C)noc4C)cc3C(=O)N([C@H](C)CO)C[C@@H]2C)cc1`, the activation was -0.123% (inactive).
For the compound `Cc1ccc(S(=O)(=O)Nc2cc(-c3ccccc3)nn2C)cc1Cl`, the activation was -0.007% (inactive).
On the same count and under the same terms, then `COc1ccc(-c2nnc3n2CCCCC3)cc1`, with 0.032% (inactive); and `COc1ccc(S(=O)(=O)Nc2ccc3c(c2)C(=O)N([C@@H](C)CO)C[C@@H](C)[C@@H](CN(C)Cc2ccc(C(=O)Nc4ccccc4N)cc2)O3)cc1`, with 1.66% (inactive); and `C[C@@H]1CN([C@@H](C)CO)C(=O)Cc2cc(NC(=O)CCCCCC(=O)Nc3ccccc3N)ccc2O[C@@H]1CN(C)C(=O)Nc1ccc2c(c1)OCO2`, with 0.042% (inactive).
Regarding `Cc1c(O)nc2ccccn2c1=O`, the activation was 0.171% (inactive).
As for `Cc1noc(C)c1S(=O)(=O)N(C)C[C@@H]1Oc2ccc(NC(=O)Nc3ccc(F)cc3)cc2CC(=O)N([C@H](C)CO)C[C@H]1C`, the activation is -0.155% (inactive).
The same measure, in the same setting: to `CN1C(=O)c2cc(NS(C)(=O)=O)ccc2OC[C@@H]2O[C@H](CC(=O)NCc3ccc(-c4ccccc4)cc3)CC[C@@H]21` belongs -0.043% (inactive).
The same measure, in the same setting: then `C[C@@H]1CN([C@H](C)CO)C(=O)c2cccc(NC(=O)C3CCOCC3)c2O[C@@H]1CN(C)Cc1ccc(Oc2ccccc2)cc1`, with 0.031% (inactive); and `C[C@@H]1CN([C@H](C)CO)S(=O)(=O)c2ccc(-c3ccccc3)cc2O[C@H]1CN(C)S(C)(=O)=O`, with -0.007% (inactive); and `CCC(=O)N(C)C[C@H]1Oc2cc(C3=CCCC3)ccc2S(=O)(=O)N([C@@H](C)CO)C[C@@H]1C`, with -0.074% (inactive).
Same read-out and setting: to `CN(CC(=O)Nc1ccccc1Br)C(=O)CNC(=O)C1CCCCC1` belongs 0.383% (inactive); to `Cc1noc(C)c1NC(=O)Nc1ccc2c(c1)CC(=O)N([C@@H](C)CO)C[C@H](C)[C@H](CN(C)Cc1ccc(Oc3ccccc3)cc1)O2`, 0.075% (inactive); to `C[C@@H]1CN([C@H](C)CO)C(=O)c2cc(NC(=O)Nc3ccc(F)cc3)ccc2O[C@H]1CN(C)S(=O)(=O)c1cccs1`, 0.059% (inactive).
For the compound `O=C(Cc1ccc(-n2c(=O)c3sccc3n(Cc3ccc(F)cc3)c2=O)cc1)NCc1ccco1`, the activation was 0.008% (inactive).
The same measure, in the same setting: then `COc1cccc(CNC(=O)c2cc3c(cc2Cl)N2CCCCCC2=NS3(=O)=O)c1`, with -0.058% (inactive); and `C[C@H]1CN([C@@H](C)CO)C(=O)c2cc(NC(=O)CCN3CCOCC3)ccc2O[C@H]1CN(C)S(C)(=O)=O`, with -0.165% (inactive).
Same read-out and setting: to `O=S(=O)(NCc1csc(-c2cccs2)n1)c1cccc(C(F)(F)F)c1` belongs -0.123% (inactive); to `CCOc1cc(N2CCOCC2)c(OCC)cc1NC(=O)c1ccc(S(=O)(=O)N2CC(C)OC(C)C2)cc1` (stereo not drawn), -0.215% (inactive).
With `CCCNC(=O)N(C)C[C@H]1Oc2ncc(C3=CCCC3)cc2C(=O)N([C@H](C)CO)C[C@@H]1C`, the activation was -0.163% (inactive).
Still for that read-out and setting: to `COc1ccc(CNS(=O)(=O)c2ccc3c(c2)C(C)(C)C(=O)N3C)cc1` belongs 0.021% (inactive).
Take `COc1cccc(CCC(=O)N2CCC(n3nccc3NC(=O)CC(C)C)CC2)c1`: the activation is -0.002% (inactive).
For the compound `CCCC#Cc1ccc2c(c1)O[C@@H](CN(C)CCC)[C@@H](C)CN([C@@H](C)CO)S2(=O)=O`, the activation is -0.152% (inactive).
In the case of `CC(C)NC(=O)Nc1cccc2c1O[C@H](CN(C)Cc1ccc(Cl)c(Cl)c1)[C@H](C)CN([C@@H](C)CO)C2=O`, the activation is -0.02% (inactive).
On the same count and under the same terms, then `CCCCNC(=O)N1c2ccccc2CC1C` (stereo not drawn), with 0.083% (inactive); and `C[C@H](CO)N1C[C@H](C)[C@H](CN(C)C(=O)Nc2cccc3ccccc23)Oc2ccc(NS(C)(=O)=O)cc2C1=O`, with 0.267% (inactive).

The same assay, now with this note: HUVEC E-selectin immunostaining, at 21 µM (top of the series), percent of TNF-alpha response over vehicle.
As to `COc1ccc(NC(=O)N(C)C[C@@H]2Oc3ccc(NC(=O)c4ccncc4)cc3CC(=O)N([C@@H](C)CO)C[C@@H]2C)cc1`, the activation was -0.09% (inactive).
Consider `C[C@H](CO)N1C[C@H](C)[C@@H](CN(C)S(C)(=O)=O)Oc2c(NC(=O)C3CCCCC3)cccc2C1=O`, for which the activation was 0.25% (inactive).
The same measure, in the same setting: then `CC(C)NC(=O)Nc1ccc2c(c1)CC(=O)N([C@H](C)CO)C[C@@H](C)[C@@H](CN(C)Cc1ccc(Cl)c(Cl)c1)O2`, with 0.047% (inactive); and `CN1C(=O)c2cc(NC(=O)C3CCOCC3)ccc2OC[C@@H]2O[C@H](CC(=O)NCc3ccccc3F)CC[C@H]21`, with -0.036% (inactive); and `C[C@H]1CN([C@@H](C)CO)C(=O)Cc2cc(NC(=O)Nc3ccc4c(c3)OCO4)ccc2O[C@@H]1CN(C)C`, with -0.039% (inactive).
`CC(C)NC(=O)Nc1cccc2c1O[C@@H](CN(C)Cc1ccc(Cl)c(Cl)c1)[C@@H](C)CN([C@H](C)CO)C2=O`: the activation was 7.29% (inactive).
